The values that follow come from patent US9084424B2, “N-benzyl heterocyclic carboxamides” (BAYER INTELLECTUAL PROPERTY GMBH, priority 2010, dated 2015).

The structures appear in SMILES notation.

Series [1] in a line: log P by HPLC on reversed-phase column (EEC Directive 79/831 Annex V.A8). It counts as physicochemical. The settings on record: 0.1% aqueous formic acid and acetonitrile, linear gradient 10% to 90% acetonitrile. As to the method:
In table 1, the log P values were determined in accordance with EEC Directive 79/831 Annex V.A8 by HPLC (High Performance Liquid Chromatography) on a reversed-phase column (C 18), using the method described below: Temperature: 40° C.; Mobile phases: 0.1% aqueous formic acid and acetonitrile; linear gradient from 10% acetonitrile to 90% acetonitrile. Calibration was carried out using unbranched alkan-2-ones (comprising 3 to 16 carbon atoms) with known log P values (determination of the log P values by the retention times using linear interpolation between two successive alkanones). lambda-max-values were determined using UV-spectra from 200 nm to 400 nm and the peak values of the chromatographic signals.

For a further series, the system named is Sphaerotheca fuliginea. The series can be described thus: In vivo preventive test on Sphaerotheca fuliginea (cucumber). The settings on record: preventive spray, 500 ppm of active ingredient, evaluated 7 days after inoculation. The protocol:
In Vivo Preventive Test on Sphaerotheca fuliginea (Cucumber)
(§1) Solvent: 49 parts by weight of N,N-dimethylformamide
(§2) Emulsifier: 1 part by weight of alkylarylpolyglycolether
(§3) To produce a suitable preparation of active compound, 1 part by weight of active compound is mixed with the stated amounts of solvent and emulsifier, and the concentrate is diluted with water to the desired concentration.
To test for preventive activity, young plants are sprayed with the preparation of active compound at the stated rate of application. After the spray coating has dried on, the plants are inoculated with an aqueous spore suspension of Sphaerotheca fuliginea. The plants are then placed in a greenhouse at approximately 23° C. and a relative atmospheric humidity of approximately 70%.
The test is evaluated 7 days after the inoculation. 0% means an efficacy which corresponds to that of the untreated control, while an efficacy of 100% means that no disease is observed.

The next series deals with Alternaria solani. Description: In vivo preventive test on Alternaria solani (tomato). To be noted: preventive spray, 500 ppm of active ingredient, evaluated 7 days after inoculation. As to the method: In Vivo Preventive Test on Alternaria Solani (Tomato)
as §1, §2, §3
To test for preventive activity, young plants are sprayed with the preparation of active compound at the stated rate of application. One day after this treatment, the plants are inoculated with an aqueous spore suspension of Alternaria solani. The plants remain for one day in an incubation cabinet at approximately 22° C. and a relative atmospheric humidity of 100%. Then the plants are placed in an incubation cabinet at approximately 20° C. and a relative atmospheric humidity of 96%.
The test is evaluated 7 days after the inoculation. 0% means an efficacy which corresponds to that of the untreated control while an efficacy of 100% means that no disease is observed.

For another series, the system named is Pyrenophora teres. Description: In vivo preventive test on Pyrenophora teres (barley). To be noted: preventive spray, 500 ppm of active ingredient, evaluated 7-9 days after inoculation. The protocol:
In Vivo Preventive Test on Pyrenophora teres (Barley)
Solvent: 49 parts by weight of N,N-dimethylacetamid
Emulsifier: 1 part by weight of alkylaryl polyglycol ether
as §3
To test for preventive activity, young plants are sprayed with the preparation of active compound at the stated rate of application. One day after this treatment, the plants are inoculated with an aqueous spore suspension of Pyrenophora teres. The plants remain for 48 hours in an incubation cabinet at 22° C. and a relative atmospheric humidity of 100%. Then the plants are placed in a greenhouse at a temperature of approximately 20° C. and a relative atmospheric humidity of approximately 80%.
The test is evaluated 7-9 days after the inoculation. 0% means an efficacy which corresponds to that of the untreated control while an efficacy of 100% means that no disease is observed.

[2] abbreviates: HPLC, reversed-phase C 18, 40° C.
The mark [3] stands for this setting: HPLC on reversed-phase column (C 18), 40° C.

As usually defined, the logP is a log measure of how a compound divides between an organic and an aqueous phase. High values mean higher lipophilicity, low ones lower lipophilicity.

As to `C#CCN(Cc1ccccc1CC)C(=O)c1c(C(F)F)nn(C)c1F` [Example 17], the logP in series [1] (setting [2]) is 3.10. The results for the Efficacy with Sphaerotheca fuliginea, with Alternaria solani and with Pyrenophora teres were 94%, 80% and 100%, respectively.
The corresponding values for `CC(NC(=O)c1c(C(F)F)nn(C)c1F)c1ccc(Cl)cc1Cl` (centres unmarked) [Example 36] are 4.39, 93%, 94% and 100%.
The molecule `Cn1nc(C(F)F)c(C(=O)NC(c2ccc(Cl)cc2Cl)C(F)(F)F)c1Cl` (centres unmarked) [Example 32] yielded a logP in series [1] (setting [2]) of 3.89. This molecule came in with an Efficacy with Sphaerotheca fuliginea of 95%.
Take `CC(NC(=O)c1c(C(F)F)nn(C)c1F)c1ccccc1Cl` (racemic) [Example 24]: in series [1] (setting [2]), the logP stood at 2.75. The Efficacy was 89% in the series with Sphaerotheca fuliginea, 94% with Alternaria solani and 100% in the series on Pyrenophora teres.
For `CC(C)c1ccccc1CN(C(=O)c1c(C(F)F)nn(C)c1F)C1CCC1` [Example 70], the logP in series [1] (setting [2]) is recorded as 3.90. The Efficacy with Sphaerotheca fuliginea came to 100%; in the series on Alternaria solani it was 90%; in the series with Pyrenophora teres, 100%.
With `CC(NC(=O)c1c(C(F)F)nn(C)c1F)c1cc(Cl)ccc1Cl` (centres unmarked) [Example 53], the logP in series [1] (setting [2]) worked out at 4.39. Besides, the Efficacy in the series on Sphaerotheca fuliginea is reported as 95%; in the series on Alternaria solani, 94%; with Pyrenophora teres it was 95%.
Turning to `CC(C)c1ccccc1CN(C(=S)c1c(C(F)F)nn(C)c1F)C1CCC1` [Example 75], the logP in series [1] (setting [2]) worked out at 4.63. Besides, the Efficacy in the series with Sphaerotheca fuliginea and in the series with Pyrenophora teres was 100% in each case.
Consider `C#CCN(Cc1ccccc1C(C)C)C(=O)c1c(C(F)F)nn(C)c1F` [Example 73], for which the logP in series [1] (setting [2]) was found to be 3.37. The figures for the Efficacy with Sphaerotheca fuliginea, in the series on Alternaria solani and with Pyrenophora teres were 98%, 95% and 100%, respectively.
On to `Cn1nc(C(F)F)c(C(=O)NC(C)(C)c2cc(Cl)ccc2Cl)c1F` [Example 52], for which, in series [1] (setting [2]), the logP is on record as 3.89. This molecule also showed an Efficacy with Sphaerotheca fuliginea of 80%.
In turn, `CC(NC(=O)c1c(C(F)F)nn(C)c1F)c1ccc(OCc2ccccc2)cc1` (racemic) [Example 162] came in with a logP in series [1] (setting [3]) of 3.41. The Efficacy in the series on Sphaerotheca fuliginea was 88%; with Alternaria solani it was 100%; in the series with Pyrenophora teres, 100%.
In series [1] (setting [2]), `C=CCN(Cc1ccccc1C(C)C)C(=O)c1c(C(F)F)nn(C)c1F` [Example 71] returned a logP of 3.66. Further, the Efficacy is on record as 91% in the series with Sphaerotheca fuliginea, 95% with Alternaria solani and 95% in the series with Pyrenophora teres.
In turn, `Cn1nc(C(F)F)c(C(=O)NCc2ccccc2C2CC2)c1F` [Example 65] had a logP in series [1] (setting [2]) of 2.78. The Efficacy in the series with Sphaerotheca fuliginea turned out to be 85%; in the series with Alternaria solani it was 90%; in the series on Pyrenophora teres, 94%.
`CC(NC(=O)c1c(C(F)F)nn(C)c1F)c1ncc(C(F)(F)F)cc1Cl` (racemic) [Example 175] displayed a lipophilicity (logP) in series [1] (setting [3]) of 3.19. Also, the results for the Efficacy in the series on Sphaerotheca fuliginea, in the series with Alternaria solani and with Pyrenophora teres were 95%, 95% and 100%, respectively.
In turn, `Cn1nc(C(F)F)c(C(=O)NC(c2ccccc2Cl)C(F)(F)F)c1Cl` (racemic) [Example 19] displayed a logP in series [1] (setting [2]) of 3.33. Also, the Efficacy with Sphaerotheca fuliginea is given as 84%; in the series with Alternaria solani it was 90%.
Molecule `Cn1nc(C(F)F)c(C(=O)NCc2ccc(OCc3ccccc3)cc2)c1F` [Example 161] registered a logP in series [1] (setting [3]) of 3.23. The values for the Efficacy with Alternaria solani and in the series on Pyrenophora teres were 94% and 90%, respectively.
Turning to `Cn1nc(C(F)F)c(C(=O)NC2(c3ccc(Cl)c(C(F)(F)F)c3)CC2)c1F` [Example 125], in series [1] (setting [3]), the logP amounted to 3.27. The results for the Efficacy in the series on Sphaerotheca fuliginea and in the series with Pyrenophora teres were 100% and 95%, respectively.
Molecule `Cn1nc(C(F)F)c(C(=O)NCc2ccc(-c3ccccc3)cc2)c1F` [Example 170] returned a logP in series [1] (setting [3]) of 3.21. In addition, the Efficacy is listed as 94% in the series on Alternaria solani and 95% with Pyrenophora teres.
In the same order, the values of `Cn1nc(C(F)F)c(C(=O)NCc2ccc3c(c2)CCCC3)c1F` [Example 110] are 3.25, 94% and 80%.
`CN(Cc1c(Cl)cccc1C(F)(F)F)C(=O)c1c(C(F)F)nn(C)c1F` [Example 89] gave a logP in series [1] (setting [2]) of 2.93. Besides, the figures for the Efficacy with Alternaria solani and in the series on Pyrenophora teres were 95% and 100%, respectively.
On to `Cn1nc(C(F)F)c(C(=O)N(Cc2cccc(Oc3ccccc3)c2)C2COC2)c1F` [Example 148], for which the logP in series [1] (setting [3]) was found to be 3.06. For the same molecule, the Efficacy in the series on Alternaria solani is 80%; in the series on Pyrenophora teres it was 95%.
`Cn1nc(C(F)F)c(C(=O)NCc2cc(Cl)cc(Cl)c2)c1Cl` [Example 113] gave a logP in series [1] (setting [3]) of 3.23. The Efficacy worked out at 90% in the series on Alternaria solani and 80% in the series on Pyrenophora teres.
`Cn1nc(C(F)F)c(C(=O)NC(C)(C)c2ccccc2Cl)c1Cl` [Example 22] displayed a logP in series [1] (setting [2]) of 3.15. In addition, the Efficacy with Sphaerotheca fuliginea is listed as 80%.
Turning to `Cn1nc(C(F)F)c(C(=O)NC2(c3cc(Cl)ccc3Cl)CC2)c1F` [Example 51], in series [1] (setting [2]), the logP is 4.19. Besides, the Efficacy in the series with Alternaria solani was 94%; in the series with Pyrenophora teres, 80%.
Molecule `CN(Cc1ccc(Oc2ccccc2)cc1)C(=O)c1c(C(F)F)nn(C)c1F` [Example 156] returned a logP in series [1] (setting [3]) of 3.33. Moreover, the results for the Efficacy with Alternaria solani and with Pyrenophora teres were 89% and 90%, respectively.
Take `Cn1nc(C(F)F)c(C(=O)NC(C)(C)c2ccccc2Cl)c1F` [Example 26]: in series [1] (setting [2]), the logP came out at 2.92. Also, the Efficacy in the series on Sphaerotheca fuliginea was 88%; with Alternaria solani it was 94%.
Turning to `Cn1nc(C(F)F)c(C(=O)NCc2ccccc2SC(F)(F)F)c1F` [Example 107], in series [1] (setting [3]), the logP is recorded as 3.11. The Efficacy in the series on Alternaria solani is 80%; in the series on Pyrenophora teres, 100%.
As to `CC(NC(=O)c1c(C(F)F)nn(C)c1Cl)c1ccc(-c2ccccc2)cc1` (racemic) [Example 167], in series [1] (setting [3]), the logP amounted to 3.62. For the same molecule, the Efficacy with Alternaria solani was found to be 95%; with Pyrenophora teres, 90%.
Take `Cn1nc(C(F)F)c(C(=O)NC2(c3cccc(C(F)(F)F)c3)CCCC2)c1F` [Example 108]: the logP in series [1] (setting [3]) amounted to 3.65. The results for the Efficacy with Sphaerotheca fuliginea and in the series on Pyrenophora teres were 85% and 94%, respectively.
Turning to `CC(NC(=O)c1c(C(F)F)nn(C)c1F)c1ccccc1` (racemic) [Example 2], the logP in series [1] (setting [2]) is reported as 2.33. In addition, the Efficacy in the series on Alternaria solani is listed as 93%; in the series on Pyrenophora teres, 94%.
In series [1] (setting [3]), `Cn1nc(C(F)F)c(C(=O)NCc2cccc(-c3ccccc3)c2)c1F` [Example 166] displayed a logP of 3.19. Moreover, the Efficacy is 78% in the series on Alternaria solani and 80% in the series with Pyrenophora teres.
As for `Cn1nc(C(F)F)c(C(=O)NCc2cc(Cl)cc(Cl)c2)c1F` [Example 115], in series [1] (setting [3]), the logP is on record as 3.09. Also, the Efficacy with Alternaria solani was 94%; in the series on Pyrenophora teres it was 90%.
For `CC(c1ccccc1Cl)N(C)C(=O)c1c(C(F)F)nn(C)c1F` (racemic) [Example 28], in series [1] (setting [2]), the logP came out at 2.68. For the same molecule, the Efficacy with Sphaerotheca fuliginea was determined as 85%; in the series on Pyrenophora teres, 100%.
`CN(Cc1ccc(Oc2ccc(Cl)cc2)cc1)C(=O)c1c(C(F)F)nn(C)c1F` [Example 158] came in with a logP in series [1] (setting [3]) of 3.81. Also, the Efficacy amounted to 95% in the series on Alternaria solani and 100% in the series on Pyrenophora teres.
Regarding `Cn1nc(C(F)F)c(C(=O)NC(C)(C)c2ccc(Cl)cc2Cl)c1Cl` [Example 35], the logP in series [1] (setting [2]) was 3.89. In the series on Sphaerotheca fuliginea, this molecule gave an Efficacy of 86%.
With `Cn1nc(C(F)F)c(C(=O)NC(C)(C)c2cc(Cl)ccc2Cl)c1Cl` [Example 49], in series [1] (setting [2]), the logP is given as 3.89. This molecule registered an Efficacy in the series on Sphaerotheca fuliginea of 94%.
